Laboratory results from ChEMBL document CHEMBL4152189, “Incorporation of nitric oxide donor into 1,3-dioxyxanthones leads to synergistic anticancer activity” (Eur J Med Chem, 2018).

Key:
HepG2 [1] = assay: Growth inhibition of human HepG2 cells after 24 hrs by MTT assay; type: functional, cell-based; conditions: HepG2, 24 h
MDA-MB-231 = assay: Growth inhibition of human MDA-MB-231 cells after 24 hrs by MTT assay; type: functional, cell-based; conditions: MDA-MB-231, 24 h
MCF7 = assay: Growth inhibition of human MCF7 cells after 24 hrs by MTT assay; type: functional, cell-based; conditions: MCF7, 24 h
HepG2 [2] = assay: Induction of NO generation in human HepG2 cells assessed as nitrite levels at 0.66 uM after 1 hr by Griess assay (reference value: 12.9 +/- 1.5 uM); type: functional
HepG2 [3] = assay: Induction of NO generation in human HepG2 cells assessed as nitrite levels at 0.66 uM after 3 hrs by Griess assay (reference value: 12.8 +/- 1.5 uM); type: functional
HepG2 [4] = assay: Induction of NO generation in human HepG2 cells assessed as nitrite levels at 0.66 uM after 6 hrs by Griess assay (reference value: 12.6 +/- 1.1 uM); type: functional
HepG2 [5] = assay: Induction of NO generation in human HepG2 cells assessed as nitrite levels at 0.66 uM after 12 hrs by Griess assay (reference value: 12.7 +/- 1.8 uM); type: functional
HepG2 [6] = assay: Induction of NO generation in human HepG2 cells assessed as nitrite levels at 0.66 uM after 24 hrs by Griess assay (reference value: 12.8 +/- 1.7 uM); type: functional
HepG2 [7] = assay: Induction of NO generation in human HepG2 cells assessed as nitrite levels at 0.66 uM after 48 hrs by Griess assay (reference value: 12.8 +/- 1.7 uM); type: functional
HepG2 [8] = assay: Induction of NO generation in human HepG2 cells assessed as nitrite levels at 0.66 uM after 60 hrs by Griess assay (reference value: 12.8 +/- 1.5 uM); type: functional
L02 [9] = assay: Induction of NO generation in human HL-7702 cells assessed as nitrite levels at 0.66 uM after 1 hr by Griess assay (reference value: 11.6 +/- 1.1 uM); type: functional
L02 [10] = assay: Induction of NO generation in human HL-7702 cells assessed as nitrite levels at 0.66 uM after 3 hrs by Griess assay (reference value: 11.6 +/- 1.2 uM); type: functional
L02 [11] = assay: Induction of NO generation in human HL-7702 cells assessed as nitrite levels at 0.66 uM after 6 hrs by Griess assay (reference value: 11.8 +/- 1.1 uM); type: functional
L02 [12] = assay: Induction of NO generation in human HL-7702 cells assessed as nitrite levels at 0.66 uM after 12 hrs by Griess assay (reference value: 11.8 +/- 1.2 uM); type: functional
L02 [13] = assay: Induction of NO generation in human HL-7702 cells assessed as nitrite levels at 0.66 uM after 24 hrs by Griess assay (reference value: 11.6 +/- 1.1 uM); type: functional
L02 [14] = assay: Induction of NO generation in human HL-7702 cells assessed as nitrite levels at 0.66 uM after 48 hrs by Griess assay (reference value: 11.6 +/- 1.1 uM); type: functional
L02 [15] = assay: Induction of NO generation in human HL-7702 cells assessed as nitrite levels at 0.66 uM after 60 hrs by Griess assay (reference value: 11.8 +/- 1.3 uM); type: functional

Question: How did the IC50 (HepG2 [1]) turn out when `O=[N+]([O-])OCCCCCO` was run?
Answer: 72.8 µM

Question: And the IC50 (MDA-MB-231)?
Answer: 140 µM

Question: And the IC50 (MCF7)?
Answer: 102 µM

Question: And the Activity (HepG2 [2])?
Answer: 16.2 µM

Question: What about the Activity (HepG2 [3]) of the same molecule?
Answer: 18.4 µM

Question: What about the Activity (HepG2 [4]) of the same molecule?
Answer: 23.3 µM

Question: What about the Activity (HepG2 [5]) of the same molecule?
Answer: 26 µM

Question: What about the Activity (HepG2 [6]) of the same molecule?
Answer: 29.2 µM

Question: And the Activity (HepG2 [7])?
Answer: 24.6 µM

Question: And the Activity (HepG2 [8])?
Answer: 17.1 µM

Question: What about the Activity (L02 [9]) of the same molecule?
Answer: 13.5 µM

Question: And the Activity (L02 [10])?
Answer: 13.8 µM

Question: What about the Activity (L02 [11]) of the same molecule?
Answer: 16 µM

Question: What about the Activity (L02 [12]) of the same molecule?
Answer: 17.5 µM

Question: What about the Activity (L02 [13]) of the same molecule?
Answer: 14.1 µM

Question: What about the Activity (L02 [14]) of the same molecule?
Answer: 13.4 µM

Question: What about the Activity (L02 [15]) of the same molecule?
Answer: 13.3 µM
